Experimental data: ChEMBL document CHEMBL1138469, “Structural basis for inhibitor specificity in human poly(ADP-ribose) polymerase-3” (J Med Chem, 2009)
pIC50, pKd: −log10 of the molar value. Active and inactive are the calls of the source. The rule behind the calls is not given here.

Columns and labels:
[1] = target: T1, Protein mono-ADP-ribosyltransferase PARP3 (Homo sapiens, UniProt Q9Y6F1); experiment: Binding affinity to human PARP3 PARP domain by isothermal titration […]
T1 sequence (Q9Y6F1 whole entry): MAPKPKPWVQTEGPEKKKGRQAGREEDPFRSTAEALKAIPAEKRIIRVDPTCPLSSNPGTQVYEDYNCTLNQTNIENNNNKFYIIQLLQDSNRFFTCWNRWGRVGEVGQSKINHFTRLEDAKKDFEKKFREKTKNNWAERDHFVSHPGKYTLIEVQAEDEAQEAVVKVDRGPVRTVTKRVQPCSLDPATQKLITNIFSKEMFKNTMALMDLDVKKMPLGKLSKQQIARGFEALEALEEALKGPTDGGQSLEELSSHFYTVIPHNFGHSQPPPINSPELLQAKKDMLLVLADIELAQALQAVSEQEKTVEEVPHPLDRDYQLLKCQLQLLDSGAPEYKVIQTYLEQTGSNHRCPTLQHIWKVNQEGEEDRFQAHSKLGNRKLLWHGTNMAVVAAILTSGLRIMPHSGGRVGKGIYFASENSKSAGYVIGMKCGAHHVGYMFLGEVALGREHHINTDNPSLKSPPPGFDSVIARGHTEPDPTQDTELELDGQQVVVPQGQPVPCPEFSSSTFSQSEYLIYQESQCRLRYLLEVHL

[2] = target: T2, Protein mono-ADP-ribosyltransferase PARP3 (Homo sapiens) (UniProt Q9Y6F1); experiment: Inhibition of human PARP3 auto-ADP ribosylation by Western blotting
T2 sequence (whole entry): T1 sequence (Q9Y6F1 whole entry)

[3] = target: T3, Poly [ADP-ribose] polymerase 1 (Homo sapiens, UniProt P09874)
T3 sequence (P09874 whole entry): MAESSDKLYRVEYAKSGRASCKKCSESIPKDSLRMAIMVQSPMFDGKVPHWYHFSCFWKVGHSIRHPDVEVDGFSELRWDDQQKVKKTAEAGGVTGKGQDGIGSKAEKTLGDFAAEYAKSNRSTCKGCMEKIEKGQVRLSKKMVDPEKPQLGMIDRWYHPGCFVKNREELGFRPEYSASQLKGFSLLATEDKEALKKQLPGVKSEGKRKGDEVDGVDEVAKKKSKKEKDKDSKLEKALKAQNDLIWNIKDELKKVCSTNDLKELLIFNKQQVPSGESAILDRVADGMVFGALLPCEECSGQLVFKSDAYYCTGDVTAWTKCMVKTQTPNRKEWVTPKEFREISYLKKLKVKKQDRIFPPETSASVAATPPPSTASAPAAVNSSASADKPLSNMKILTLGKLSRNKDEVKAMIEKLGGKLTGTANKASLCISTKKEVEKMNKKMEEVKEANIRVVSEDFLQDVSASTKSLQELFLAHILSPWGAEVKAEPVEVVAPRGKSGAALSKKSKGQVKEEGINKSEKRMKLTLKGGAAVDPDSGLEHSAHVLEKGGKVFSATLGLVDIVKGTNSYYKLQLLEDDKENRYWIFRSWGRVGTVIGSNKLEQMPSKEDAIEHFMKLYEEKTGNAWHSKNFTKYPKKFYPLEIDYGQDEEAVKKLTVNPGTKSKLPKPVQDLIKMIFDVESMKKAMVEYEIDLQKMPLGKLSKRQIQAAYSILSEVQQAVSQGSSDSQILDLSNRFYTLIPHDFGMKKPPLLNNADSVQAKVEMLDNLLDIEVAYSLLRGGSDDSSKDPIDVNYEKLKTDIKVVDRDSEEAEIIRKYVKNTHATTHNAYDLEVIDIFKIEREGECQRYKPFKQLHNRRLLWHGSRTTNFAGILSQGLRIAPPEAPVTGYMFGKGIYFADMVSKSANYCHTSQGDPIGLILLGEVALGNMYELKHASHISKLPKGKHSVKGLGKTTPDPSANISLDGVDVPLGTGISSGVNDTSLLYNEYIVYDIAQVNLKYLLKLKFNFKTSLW
Description: Binding affinity to human PARP1 by isothermal titration colorimetry

[4] = target: T3, Poly [ADP-ribose] polymerase 1; experiment: Inhibition of human PARP1

| pKd [1] | Activity [2] | pKd [3] | pIC50 [4] | Compound |
| --- | --- | --- | --- | --- |
| < 5.70 | – | – | – | Nc1cccc(C(=O)O)c1 [3-AMINOBENZOIC ACID] |
| – | Active | 7.72 | 8.47 | O=C(c1cc(Cc2n[nH]c(=O)c3ccccc23)ccc1F)N1CCCNCC1 |
